The structures appear in SMILES notation.

What is called Ki is a dissociation constant, usually derived from enzyme kinetics or from competition with a known ligand. Low readings indicate a stronger hold on the target, high ones a looser hold on the target.

Adenosine receptor A2a, sequence (P30543 whole entry): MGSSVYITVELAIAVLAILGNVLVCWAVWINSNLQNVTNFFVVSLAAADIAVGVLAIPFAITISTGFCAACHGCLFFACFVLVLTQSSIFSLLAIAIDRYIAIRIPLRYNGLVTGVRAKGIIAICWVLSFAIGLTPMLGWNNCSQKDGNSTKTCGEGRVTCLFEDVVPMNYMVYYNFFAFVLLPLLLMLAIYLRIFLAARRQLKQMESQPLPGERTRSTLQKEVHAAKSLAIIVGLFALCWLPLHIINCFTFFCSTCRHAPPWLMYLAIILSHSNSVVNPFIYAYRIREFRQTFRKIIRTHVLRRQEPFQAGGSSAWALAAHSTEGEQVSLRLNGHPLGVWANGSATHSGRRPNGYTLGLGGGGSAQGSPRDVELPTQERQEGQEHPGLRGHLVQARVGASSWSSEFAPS

One experiment has as its target T1, Adenosine receptor A1 (Rattus norvegicus, UniProt P25099).
T1 sequence (P25099 whole entry): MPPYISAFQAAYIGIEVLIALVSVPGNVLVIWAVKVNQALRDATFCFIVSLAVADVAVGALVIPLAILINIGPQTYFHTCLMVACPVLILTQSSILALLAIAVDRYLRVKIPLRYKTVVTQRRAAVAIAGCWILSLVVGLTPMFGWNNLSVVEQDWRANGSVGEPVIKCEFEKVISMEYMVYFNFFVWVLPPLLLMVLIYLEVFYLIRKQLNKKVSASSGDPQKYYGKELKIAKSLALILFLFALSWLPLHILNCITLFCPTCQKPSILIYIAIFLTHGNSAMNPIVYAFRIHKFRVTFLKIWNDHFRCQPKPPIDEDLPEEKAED
Description: Ability to displace [3H]N6-phenylisopropyladenosine binding from adenosine A1 receptor.
`COc1ccc2c(c1)C(=O)C(O)C(C#Cc1ccccc1)O2` (stereo unspecified) came in with a Ki of 50.1 µM. Compound `COc1cc(O)c2c(c1)O[C@H](c1ccc(O)cc1)CC2=O` [5-hydroxy-2-(4-hydroxyphenyl)-7-methoxychroman-4-one] returned a Ki of 8.13 µM.

Another experiment has as its target Adenosine receptor A2a (Rattus norvegicus, UniProt P30543). Description: Ability to displace [3H]-CGS- 21680 binding from adenosine A2A receptor.
For `CC(=O)Oc1cc(OC(C)=O)c2c(c1)OC(c1ccccc1)C(OC(C)=O)C2=O` (stereo unspecified), the Ki turned out to be 56.2 µM. In turn, `CCOc1ccc(-c2oc3cc(OCC)cc(OCC)c3c(=O)c2OCC)c(OCC)c1` [2-(2,4-Diethoxy-phenyl)-3,5,7-triethoxy-chromen-4-one] showed a Ki of 26.3 µM. For `COc1ccc(-c2cc(=O)c3ccc(O)cc3o2)cc1OC` [2-(3,4-dimethoxyphenyl)-7-hydroxy-4H-chromen-4-one], the affinity, expressed as Ki, was 34.7 µM.

In the case of `O=c1c(Cl)c(-c2ccccc2)oc2ccccc12` [3-Chloro-2-phenyl-chromen-4-one], the Ki worked out at 25.1 µM. Regarding `CCOc1c2ccoc2cc2oc(/C=C/C=C/c3ccccc3)cc(=O)c12` [4-Ethoxy-7-((1E,3E)-4-phenyl-buta-1,3-dienyl)-furo[3,2-g]chromen-5-one], the affinity, expressed as Ki, was 166 µM. Same read-out and setting: the value for `COc1c(O)cc2oc(-c3ccc(O)cc3)cc(=O)c2c1O` [5,7-dihydroxy-2-(4-hydroxyphenyl)-6-methoxy-4H-chromen-4-one] was 7.59 µM; that for `O=c1c(Cl)c(-c2ccccc2)oc2ccc(Cl)cc12` [NSC-74876] was 55 µM.

The target of the next experiment is T2, Adenosine receptor A3 (Homo sapiens, UniProt P0DMS8).
T2 sequence (P0DMS8 whole entry): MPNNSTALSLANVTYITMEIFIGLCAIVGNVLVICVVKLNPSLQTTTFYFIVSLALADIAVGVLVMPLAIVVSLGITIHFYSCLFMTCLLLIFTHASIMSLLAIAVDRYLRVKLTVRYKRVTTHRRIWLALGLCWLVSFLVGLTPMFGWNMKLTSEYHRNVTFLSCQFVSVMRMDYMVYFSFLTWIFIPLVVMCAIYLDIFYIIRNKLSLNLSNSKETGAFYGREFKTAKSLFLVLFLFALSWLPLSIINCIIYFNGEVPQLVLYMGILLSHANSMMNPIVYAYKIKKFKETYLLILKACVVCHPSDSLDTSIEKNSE
As to the kind of experiment: Ability to displace [125I]-AB-MECA binding from adenosine A3 receptor.
The compound `COc1ccc2c(c1)C(=O)C(O)C(C#Cc1ccccc1)O2` (stereo unspecified) displayed a Ki of 8.13 µM. Regarding `COC1(OC)Cc2oc(-c3ccc(O)cc3O)c(CC=C(C)C)c(=O)c2C(O)=C1/C=C/C(C)C`, the Ki came out at 4.57 µM. The compound `CCOc1c(-c2c(C)cc(C)cc2C)oc2ccc(Cl)cc2c1=O` yielded a Ki of 0.191 µM. Still for that read-out and setting: the value for `O=C1C[C@@H](c2ccc(O)cc2)Oc2ccccc21` [2-(4-hydroxyphenyl)-2,3-dihydro-4H-chromen-4-one] was 22.9 µM.

The compound `O=C1CC(c2ccccc2)Oc2ccccc21` (stereo unspecified) [2-phenyl-2,3-dihydro-4H-chromen-4-one] came in with a Ki of 16.2 µM.

`COc1cc(OC)c2c(=O)c(OC)c(-c3cc(OC)c(OC)c(OC)c3)oc2c1` [3,5,7-Trimethoxy-2-(3,4,5-trimethoxy-phenyl)-chromen-4-one] showed a Ki of 6.61 µM. As for `COc1cc(OC)c2c(=O)c(OC)c(-c3ccccc3)oc2c1` [3,5,7-Trimethoxy-2-phenyl-chromen-4-one], the affinity corresponds to a Ki of 0.831 µM.

Turning to `COc1ccc(-c2cc(=O)c3c(O)cc(C)cc3o2)cc1` [5-Hydroxy-2-(4-methoxy-phenyl)-7-methyl-chromen-4-one], the Ki came to 50.1 µM. In the case of `COc1cc(O)c2c(c1)O[C@H](c1ccc(O)cc1)CC2=O` [5-hydroxy-2-(4-hydroxyphenyl)-7-methoxychroman-4-one], the Ki is 3.39 µM.

The compound `Cc1ccc(-c2oc3ccc(Cl)cc3c(=O)c2Cl)c(C(C)C)c1` [NSC-74899] displayed a Ki of 0.562 µM.

Regarding `COc1cc2oc(-c3ccc(O)cc3)cc(=O)c2c(O)c1OC` [cirsimartin], the Ki came out at 3.16 µM. Consider `O=c1c(O)c(-c2ccccc2)oc2cc(O)cc(O)c12` [norizalpinin], for which the Ki amounted to 0.589 µM.

The record behind these values is BindingDB's records for doi:10.1021/jm970446z (National Institute of Diabetes, 1998).
